Where “and” joins values, the source holds several entries; their conditions need not be identical. Identical values can stand only once.
What was measured:
[1] = Metabolite analysis of arterial plasma (unmetabolized parent fraction), column-switching HPLC; type: in vivo, rhesus monkeys (Macaca mulatta); conditions: mean ± SD
Description: Arterial blood samples were collected for each scan to measure the input function. Metabolite analysis was performed using an automatic column-switching high-performance liquid chromatography system ([22]) for 7 arterial blood samples collected at 5, 15, 30, 60, 90, 120, and 180 min. The radiometabolite-corrected arterial plasma input function was obtained by calculating the product of the fitted total plasma (fitted with a sum of exponentials) and unmetabolized parent fraction curves (using an integrated γ-function ([23])).

[2] = Plasma free fraction (fp), ultrafiltration method; type: in vitro ADME, rhesus monkeys (Macaca mulatta); conditions: measured in triplicate per scan, mean ± SD
Description: The plasma free fraction (fp) for each scan was measured in triplicate using the ultrafiltration method and calculated as the ratio of radioactivity in the filtrate to that in the plasma ([24]).

GAT-1 [3] = molecular target: T1, GAT-1 (Macaca mulatta, UniProt H9ELS5); assay: PET brain imaging with kinetic modeling (1TCM), baseline and tiagabine blocking scans; type: in vivo, rhesus monkeys (Macaca mulatta); conditions: for Median VT across ROIs: 1TCM
T1 construct: from tissue; host or cells: brain of living rhesus monkeys (in vivo PET)
Description: Twenty scans were acquired from 4 rhesus monkeys (Macaca mulatta). Each monkey underwent baseline and blocking scans with ^18F-GATT-31, ^18F-GATT-34, ^18F-GATT-39, or ^18F-GATT-44 (Fig. 1) on a Focus-220 small-animal PET scanner (Siemens Healthineers).
(§1) Before each scan, each monkey was sedated with alfaxalone (2 mg/kg), midazolam (0.3 mg/kg), and dexmedetomidine (0.01 mg/kg), and anesthesia was maintained with 1.5%–2.5% isoflurane. Heart rate, blood pressure, respiration rate, and oxygen saturation were monitored continuously. An intravenous line was placed in the saphenous or cephalic vein for delivery of the radiotracer, as well as tiagabine during blocking studies (0.5 mg/kg administered 19 ± 4 min before radiotracer injections). A catheter was placed in the radial or tibial artery for blood sampling.
Before injection, a transmission scan was acquired. Starting with injection of the radiotracer, PET emission data were acquired in list-mode format and binned into 45 frames (6 × 30 s, 3 × 1 min, 2 × 2 min, and 34 × 5 min).
For region-of-interest (ROI) definition, each PET image was registered to an in-house rhesus monkey anatomical MRI template using the concatenation of a rigid-body transformation between the summed PET image (0–10 min) and corresponding monkey’s MRI (using the FMRIB Linear Image Registration Tool) and a nonlinear transformation matrix estimated between the monkey’s MRI and the MRI template (BioImage Suite software version 3.01). Regional time–activity curves were extracted for the following 11 ROIs: brain stem, caudate, cerebellum, cingulate cortex, frontal cortex, hippocampus, insula, occipital cortex, putamen, temporal cortex, and thalamus.
For each baseline and blocking scan, kinetic analysis was performed using a 1-tissue compartment model (1TCM), a reversible 2-tissue compartment model (2TCM; k4 > 0), and an irreversible 2-tissue compartment model (2TiCM; k4 = 0), including a blood volume fraction (Vb) term and a time-delay term. Vb was estimated for each time–activity curve using the whole-blood curve fitted with a sum of exponentials. The time delay (Δt) between the input function and the brain was estimated by fitting the first 10 min of the whole-brain time–activity curve to a 1TCM with 3 parameters: K1, Vb, and Δt (k2 was set to 0 because of the negligible radiotracer washout during the first 10 min). This estimated time delay value was then used in the time–activity curve fits. The primary parameters of interest were the influx constant (K1, expressed in microliters per minute per cubic centimeter, since values were low), the volume of distribution (VT, expressed in milliliters per cubic centimeter), and the net influx constant (Ki, expressed in milliliters per minute per cubic centimeter) for 2TiCM.

[4] = parameters: method as in PMID 9530548; conditions: humans, 24-mg single oral dose; cited from earlier work
[5] = Plasma tiagabine concentration by mass spectrometry; type: in vivo, rhesus monkeys (Macaca mulatta); conditions: 0.5 mg/kg tiagabine i.v.; 30–190 min after tiagabine injection
Description: For 8 of the 10 blocking scans, venous blood samples were acquired at 30, 60, 90, 120, 160, and 190 min after injection of tiagabine, in addition to 1 control sample before tiagabine injection, to measure its concentration using mass spectrometry (described in the supplemental materials).

GABA = conditions: vervet brain in vivo; cited from earlier work
GAT-1 [6] = test system: GAT-1; parameters: method as in PMID 10642842; conditions: in vitro, human brain postmortem; cited from earlier work
GAT-1 [7] = molecular target: T1, GAT-1; assay: Occupancy plots from baseline and tiagabine blocking PET scans (occupancy, VND, BPND); type: in vivo, rhesus monkeys (Macaca mulatta); conditions: for VND: occupancy plot; for Occupancy: tiagabine 0.5 mg/kg occupancy measured with this radiotracer
Description: as §1
Occupancy plots ([26]) were used to estimate tiagabine occupancy and the nondisplaceable volume of distribution (VND). This VND value was used to compute the nondisplaceable binding potential (BPND = VT/VND − 1). To compare the performance between 2 radiotracers, a Guo plot ([27]) was created, using baseline VT values, to assess the relative affinity and BPND values of each radiotracer.

P-glycoprotein (PgP) = P-glycoprotein (PgP) (Homo sapiens, UniProt P08183); assay: Efflux by P-glycoprotein; type: in vitro ADME
[8] = test system: GABAA receptor α5 subtype; parameters: method as in PMID 30102960, PMID 32578977; conditions: cited from earlier work
[9] = after blocking with tiagabine 0.5 mg/kg

T1 sequence (H9ELS5 1-599): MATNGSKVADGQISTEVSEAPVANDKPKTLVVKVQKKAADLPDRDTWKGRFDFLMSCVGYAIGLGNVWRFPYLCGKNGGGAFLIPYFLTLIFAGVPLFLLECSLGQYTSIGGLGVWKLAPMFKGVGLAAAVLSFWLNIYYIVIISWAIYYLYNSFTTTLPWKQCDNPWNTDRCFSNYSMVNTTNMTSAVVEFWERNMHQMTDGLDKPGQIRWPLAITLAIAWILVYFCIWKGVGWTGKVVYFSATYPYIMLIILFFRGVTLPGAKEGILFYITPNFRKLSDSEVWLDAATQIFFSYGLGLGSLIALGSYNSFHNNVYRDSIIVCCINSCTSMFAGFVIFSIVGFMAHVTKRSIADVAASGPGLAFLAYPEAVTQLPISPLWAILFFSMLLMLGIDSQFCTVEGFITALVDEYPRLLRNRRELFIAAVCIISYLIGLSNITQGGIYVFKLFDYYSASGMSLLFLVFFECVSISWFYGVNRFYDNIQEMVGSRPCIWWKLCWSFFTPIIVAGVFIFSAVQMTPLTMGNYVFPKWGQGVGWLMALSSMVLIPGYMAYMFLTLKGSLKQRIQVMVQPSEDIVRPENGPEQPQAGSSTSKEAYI
Chain of P-glycoprotein (PgP) (P08183 whole entry): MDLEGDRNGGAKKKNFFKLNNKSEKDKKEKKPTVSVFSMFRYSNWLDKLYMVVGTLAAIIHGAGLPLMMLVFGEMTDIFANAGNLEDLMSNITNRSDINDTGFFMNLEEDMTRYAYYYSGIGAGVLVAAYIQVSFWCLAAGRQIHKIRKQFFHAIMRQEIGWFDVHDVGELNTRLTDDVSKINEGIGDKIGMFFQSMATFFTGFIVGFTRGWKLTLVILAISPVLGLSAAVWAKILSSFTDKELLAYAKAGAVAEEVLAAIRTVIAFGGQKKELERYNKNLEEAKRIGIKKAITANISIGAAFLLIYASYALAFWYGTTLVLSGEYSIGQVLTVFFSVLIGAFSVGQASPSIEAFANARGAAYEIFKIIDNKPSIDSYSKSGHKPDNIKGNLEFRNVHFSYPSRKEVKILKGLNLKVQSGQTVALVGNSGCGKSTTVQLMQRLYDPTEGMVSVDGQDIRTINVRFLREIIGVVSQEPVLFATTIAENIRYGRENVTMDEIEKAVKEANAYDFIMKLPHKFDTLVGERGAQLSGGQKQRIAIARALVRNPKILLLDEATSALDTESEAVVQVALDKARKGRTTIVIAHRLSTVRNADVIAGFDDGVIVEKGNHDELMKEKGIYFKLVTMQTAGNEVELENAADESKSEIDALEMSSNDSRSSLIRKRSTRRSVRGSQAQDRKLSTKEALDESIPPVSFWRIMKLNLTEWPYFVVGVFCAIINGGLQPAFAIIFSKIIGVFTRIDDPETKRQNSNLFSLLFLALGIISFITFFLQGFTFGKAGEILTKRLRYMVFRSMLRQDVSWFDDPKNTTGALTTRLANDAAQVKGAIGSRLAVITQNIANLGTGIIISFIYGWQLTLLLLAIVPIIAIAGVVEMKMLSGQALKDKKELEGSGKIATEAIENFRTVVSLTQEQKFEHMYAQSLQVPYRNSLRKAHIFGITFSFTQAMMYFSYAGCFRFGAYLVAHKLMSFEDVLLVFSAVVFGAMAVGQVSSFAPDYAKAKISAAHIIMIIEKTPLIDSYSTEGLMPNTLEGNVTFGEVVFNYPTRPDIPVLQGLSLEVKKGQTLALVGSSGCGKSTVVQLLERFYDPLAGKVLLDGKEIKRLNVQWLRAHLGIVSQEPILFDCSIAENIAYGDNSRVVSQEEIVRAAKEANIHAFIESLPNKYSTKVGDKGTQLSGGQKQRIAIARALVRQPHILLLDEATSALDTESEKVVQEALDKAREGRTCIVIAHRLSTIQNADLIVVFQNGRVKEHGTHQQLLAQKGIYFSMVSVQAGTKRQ

## O=C(O)C1CCCN(CCC=C(c2ccccc2[18F])c2ccccc2Cl)C1 (stereo not shown) [^18F-GATT-39]
[1]; 30 min
  Parent compound: 95 ± 4%
[1]; 90 min
  Parent compound: 85 ± 9%
[2]
  Free fraction: 10.5 ± 1.0%
GAT-1 [3]; 1TCM influx constant
  K1 values: especially low
GAT-1 [3]; [9]
  Median VT across ROIs: 0.9 mL/cm^3
GAT-1 [3]; baseline
  Median VT across ROIs: 1.6 mL/cm^3

## Cc1ccsc1C(=CCCN1CCC[C@@H](C(=O)O)C1)c1sccc1C [tiagabine, (R)-1-[4,4-bis(3-methyl-2-thienyl)-3-butenyl]-3-piperidinecarboxylic acid]
[4]
  Elimination half-life: 7.3 h
  Plasma concentration peak value: 552 ng/mL
[5]
  Average plasma concentration: 385 ± 70 µg/L
GABA
  Effect on GABA in brain: increase GABA
GAT-1 [6]
  Selectivity for GAT-1: excellent selectivity for GAT-1

## Cc1ccccc1C(=COCCN1CCCC(C(=O)O)C1)c1ccccc1[18F] (stereo not shown) [^18F-GATT-31]
[1]; 30 min
  Parent compound: 87 ± 3%
[1]; 90 min
  Parent compound: 76 ± 6%
[1]; 180 min
  Parent compound: 63% and 63 ± 11%
GAT-1 [7]; monkey 1
  VND: 0.31 mL/cm^3
  Occupancy: 69%
GAT-1 [7]; monkey 2
  VND: −0.61 mL/cm^3 and −0.61 ^* mL/cm^3
  Occupancy: 22%
GAT-1 [7]; monkey 3
  VND: 1.02 mL/cm^3
  Occupancy: 70%
[2]
  Free fraction: 12.4 ± 1.8%
GAT-1 [3]; [9]
  Median VT across ROIs: 1.5 mL/cm^3
GAT-1 [3]; baseline
  Median VT across ROIs: 2.8 mL/cm^3
P-glycoprotein (PgP)
  Efflux by PgP (category): low efflux by PgP

## Cc1ccccc1C(=COCCN1CCCC(C(=O)O)C1)c1ccc([18F])cc1 (stereo not shown) [^18F-GATT-34]
[1]; 30 min
  Parent compound: 91 ± 2%
[1]; 90 min
  Parent compound: 83 ± 2%
[2]
  Free fraction: 10.8 ± 0.4%
GAT-1 [3]; [9]
  Median VT across ROIs: 1.3 mL/cm^3
GAT-1 [3]; baseline
  Median VT across ROIs: 1.5 mL/cm^3
GAT-1 [3]; tiagabine 0.5 mg/kg
  Blocking effect of tiagabine on VT: small

## CCOC(=O)c1ncn2c1CN([11CH3])C(=O)c1cc(N=[N+]=[N-])ccc1-2 [[^11C]Ro15-4513]
[8]
  Affinity: high affinity

From publication PMC12487869, “Toward Imaging of the GABA Transporter Type 1 In Vivo: Quantitative Evaluation of 4 Novel PET Radiotracers in Nonhuman Primates” (Journal of Nuclear Medicine, 2025)
